One assay deals with T1, Asf1 1-156 (Homo sapiens, UniProt Q9Y294).
T1 construct: made in house
Description: Calorimetry (ITC) of the interaction of peptides with Asf1 1-156. In kind it is binding. Particulars: for affinity for Asf1 compared with peptide i5: optimized sequences of i5; for binding to Asf1 (in words): control peptide mutated on three key residues. Here is the method:
FIG. 1: ITC curves of the interaction Asf1 1-156 (30 μM in A, 10 μM in B and C) with peptide i1 (A), i4 (B) and i5 (C). The peptide concentration used for this experiment is 0.5 mM for i1, and 0.16 mM for i4 and i5.
Human Asf1a and b proteins and the conserved N-terminal domain (1-156) of each of the isoforms were cloned into the vector peTM30. The unlabeled and ^15N and ^13C/^15N labeled recombinant proteins were purified according to the protocol of Mousson et al. (2004, Journal of Biomolecular NMR, 29(3): 413-414). The peptides were either produced by chemical synthesis ([…]), or cloned after gene synthesis ([…]) in the vector Gateway pDest 17 (Invitrogen), then purified according to the protocol of Mousson et al. (2005, Proc. Natl. Sci. USA, 102(17): p. 5975-5980).
All calorimetry experiments were carried out in 50 mM Tris buffer pH 7.4 at 5° C., unless otherwise indicated. Peptides were introduced in the syringe at a concentration of […] and Asf1 was added to the cuvette at a concentration of 30 μM or 10 μM. Calorimetry tests were also conducted at 25° C. or in 50 mM Tris buffer, 150 mM NaCl, pH 7.4 to obtain more detailed information on the characteristics of the interactions studied.

The subject of assay [1] is U2OS cells. The assay is described as follows: Cell penetration test of FITC-labelled peptides by flow cytometry. In kind it is cell-based, human. The following applies: FITC label, 1 μM, 1 hour, FIG. 5. Here is the method: The capacity of the peptide i42V (SEQ ID NO: 47) coupled either to the sequence TAT (peptide TAT-i42V, SEQ ID NO: 58) or to the sequence (RRP)5 (peptide RRP5-i42V, SEQ ID NO 59) was measured using these peptides coupled to an FITC label. The mean fluorescence of the cells was analyzed by flow cytometry (FIG. 5).
U2OS cells were incubated with culture medium supplemented with fluorescent peptide at a final concentration of 1 μM for 1 hour, then washed with PBS buffer and detached by addition of trypsin, washed with PBS buffer, then analyzed by flow cytometry (FACS).
(In general: Flow cytometry measures light scatter and fluorescence of single cells or particles in a stream.)

In assay [2] the test system is U2OS cells. Description: Toxicity test on U2OS cells transduced with peptides in the presence of pyrene butyrate. Particulars: 24 hours after transduction. In kind it is cell-based, human. Here is the method: To optimize the internalization of the peptide, the transduction was performed in the presence of pyrene butyrate, according to the method proposed by Takeuchi et al. (ACS CHEMICAL BIOLOGY, 2006. 1(5): p. 299-303). […] RRP5-i1 is the peptide of SEQ ID NO: 60. RRP5-i5 is the peptide of SEQ ID NO: 66. This correlation between the affinity of the peptide for Asf1 and the induced cell toxicity was confirmed for another cell type (HeLa cells) and by using another protocol to measure cell survival, the MTT assay (FIG. 10).
To test the phenotypes induced by the peptide, a newly developed protocol for the “Cell Penetrating TAT” was used. The peptides were dissolved in PBS buffer containing […] and incubated with U2OS (or HeLa) cells for 4 minutes. Cells were then washed three times with PBS buffer, then taken up in culture medium containing fetal calf serum. Cell death was analyzed by FACS 24 to 48 hours later by propidium iodide incorporation or by an MTT assay (3-(4,5-dimethylthiazol-2-yl)-2,5-diphenyl tetrazolium bromide). (Mosmann, T. J. Immunol. Methods 65: 55-63, 1983).

For the next assay, the target named is T2, Asf1-H3-H4 interaction (Homo sapiens, UniProt Q9Y294).
T2 construct: The human protein GST-Asf1 1-156 was produced; made in house
T2 sequence (Q9Y294 1-156): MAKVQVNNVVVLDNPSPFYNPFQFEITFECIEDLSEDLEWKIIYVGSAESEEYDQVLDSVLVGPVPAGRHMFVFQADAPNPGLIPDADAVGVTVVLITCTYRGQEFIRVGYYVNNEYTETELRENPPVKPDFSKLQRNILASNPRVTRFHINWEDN
The assay is described as follows: Competition assay on GST column (peptide/histone competition in vitro, Western blot). It counts as binding. The following applies: peptide 0.1 mM and 1 mM, FIG. 3. Here is the method: To do this, GST beads linked to Asf1 were incubated with an excess of histones H3-H4, then washed and incubated with increasing concentrations of peptide. The eluted histones were analyzed by Western blot.
The human protein GST-Asf1 1-156 was produced and then incubated with GST beads (glutathione S transferase, Sigma). For each experiment, 40 μg of recombinant Asf1 fixed to agarose beads were incubated with 400 μg of histones. After washing with 50 mM Tris buffer, pH 8, 150 mM NaCl, 1 mM EDTA, 1 mM DTT, 0.5% NP40, the beads were incubated with different concentrations of peptide (0 to 1 mM) dissolved in the same buffer.

The mark [3] stands for this setting: ITC, 50 mM Tris buffer pH 7.4 at 5° C., Asf1 1-156, read-out: Kd.

“Also recorded” adds a separate entry of the source. Like-named read-outs stand apart in the source and are kept apart here. Where no end group is shown, it is not given here.

T1 sequence (Q9Y294 1-156): as above

Consider “ASTERKWAELARRIAGAGGVTLNGFG [SEQ ID NO: 79]”, for which the “affinity for Asf1 compared with peptide i5” value at Asf1 1-156 is listed as “at least as good as that of peptide i5”.

On to “ASTERKWAELARRIRGAGGRTLNGFG [SEQ ID NO: 77]”, for which, at Asf1 1-156, the “affinity for Asf1 compared with peptide i5” value is recorded as “at least as good as that of peptide i5”.

Take “GAMGLTAAEHAKRSTLTPKEAQLARRIRGAGGVTLNGFG [SEQ ID NO: 52]”: on Asf1 1-156 (setting [3]), the Kd turned out to be 30 nM.

For “GAMGRVPPAVRKLGNASTERKWAELARRIRGAGGVTLNGFG [SEQ ID NO: 65]”, on Asf1 1-156 (setting [3]), the Kd is 60 nM.

For the substance GAMGTIMPKDIQLARRIRG [SEQ ID NO: 70], the Kd on Asf1 1-156 (unit inferred, read-out: affinity for Asf1) is 8000 nM.

Take “GAMGTIMPKDIQLARRIRGAGASRTLYGFG [SEQ ID NO: 39]”: the Kd at Asf1 1-156 (setting [3]) is 350 nM.

For “GAMGTITPKEAQLARRIRGAGGVTLNGFG [SEQ ID NO: 47]”, the Kd at Asf1 1-156 (setting [3]) worked out at 350 nM.

For the substance “GAMGTITPKEEQLRRRIEGAGASVTLNGFG [SEQ ID NO: 46]”, the Kd at Asf1 1-156 (setting [3]) is 420 nM.

“GAMGTLTPKEAELARRIRGAGASRTLNGFG [SEQ ID NO: 43]”: the Kd on Asf1 1-156 (setting [3]) turned out to be 350 nM.

As for “GAMGTLTPKEAELARRIRGAGGRTLNGFG [SEQ ID NO: 42]”, on Asf1 1-156 (setting [3]), the Kd turned out to be 180 nM.

Turning to “GAMGTLTPKEAELARRIRGAGGVTLNGFG [SEQ ID NO: 48]”, the Kd on Asf1 1-156 (setting [3]) was 60 nM.

Consider “GAMGTRTPKERRLARRIRGAGGRTLNGFG [SEQ ID NO: 56]”, for which, at Asf1 1-156 (setting [3]), the Kd was determined as 30 nM.

On to “GRKKRRQRRRGAMGTITPKEAQLARRIRGAGGVTLNGFG [SEQ ID NO: 58]”, for which the “penetration into cells (mean fluorescence)” value with U2OS cells [1] is recorded as “penetrate more effectively than the penetration sequences alone”.

“RRP5-i5mut: mutated version of RRP5-i5 carrying the (RRP)5 sequence, does not bind to Asf1; negative control (RRPRRPRRPRRPRRPASTERKWAEAARRARGAGGVTLNGAGGCA)”: the “binding to Asf1 (in words)” value with Asf1 1-156 was “does not bind to Asf1”. Moreover, the “toxicity (in words)” value in the assay with U2OS cells [2] is reported as “no toxicity was seen”.

With “RRPRRPRRPRRPRRPGAMGTITPKEAQLARRIRGAGGVTLNGFG [SEQ ID NO: 59]”, the “penetration into cells (mean fluorescence)” value with U2OS cells [1] is listed as “penetrate more effectively than the penetration sequences alone”.

As for “RRPRRPRRPRRPRRPGAMGTITPKEAQLARRIRGAGGVTLNGFGCA [SEQ ID NO: 50]”, the Kd at Asf1 1-156 (setting [3]) amounted to 420 nM.

Consider “i5mut: control peptide, 90% identity with peptide i5, mutated to alanine on three key residues, no longer binds to Asf1 (ASTERKWAEAARRARGAGGVTLNGAG) [reference compound]”, for which the “binding to Asf1 (in words)” value in the assay with Asf1 1-156 is reported as “no longer binds to Asf1; also recorded: does not bind to Asf1”. Further, in the assay with Asf1-H3-H4 interaction, the “histones bound to or detached from GST-Asf1 beads” value is given as “the histones remain bound to Asf1”.

(Values after patent publication US9526757B2, “Peptides that inhibit the interaction between ASF1 and histones, and use thereof” (COMMISSARIAT A L'ENERGIE ATOMIQUE ET AUX ENERGIES …, priority 2011, dated 2016).)
